Assay results taken from ChEMBL document CHEMBL1149938, “New 7-aryl analogues of anthracyclines: Synthesis and cytotoxic activity of ()-7-(3,4,5-trimethoxyphenyl)-7-deoxyidarubicinone” (Bioorg Med Chem Lett, 1997).

Experiments:
Type in all cases: functional, cell-based
A549 = test: Compound was evaluated for the cytotoxicity against A-549 tumor cell line after 3 days of incubation; conditions: Homo sapiens, A549, 72 h
HT-29 = test: Compound was evaluated for the cytotoxicity against HT-29 tumor cell line after 3 days of incubation; conditions: Homo sapiens, HT-29, 72 h
SK-MEL-28 = test: Compound was evaluated for the cytotoxicity against MEL-28 tumor cell line after 3 days of incubation; conditions: Homo sapiens, SK-MEL-28, 72 h
P388 = test: Compound was evaluated for the cytotoxicity against P-388 tumor cell line after 3 days of incubation; conditions: Mus musculus, P388, 72 h

COc1cccc2c1C(=O)c1c(O)c3c(c(O)c1C2=O)C[C@@](O)(C(=O)CO)C[C@@H]3O[C@H]1C[C@H](N)[C@H](O)[C@H](C)O1 [DOXORUBICIN]
IC50 (A549): 0.02 µM | IC50 (HT-29): 0.02 µM | IC50 (SK-MEL-28): 0.02 µM | IC50 (P388): 0.02 µM

COc1cc([C@H]2CC(=O)C[C@H]3C(=O)c4c(c(O)c5ccccc5c4O)C(=O)[C@@H]23)cc(OC)c1OC
IC50 (A549): 5 µM | IC50 (HT-29): 5 µM | IC50 (SK-MEL-28): 5 µM | IC50 (P388): 5 µM

COc1cc([C@H]2C[C@](O)(C(C)=O)Cc3c(O)c4c(c(O)c32)C(=O)c2ccccc2C4=O)cc(OC)c1OC
IC50 (A549): > 10 µM | IC50 (HT-29): > 10 µM | IC50 (SK-MEL-28): > 10 µM | IC50 (P388): > 10 µM

COc1cc([C@H]2C[C@](O)(C(C)=O)C[C@H]3C(=O)c4c(c(O)c5ccccc5c4O)C(=O)[C@@H]23)cc(OC)c1OC
IC50 (A549): 5 µM | IC50 (HT-29): 5 µM | IC50 (SK-MEL-28): 5 µM | IC50 (P388): 5 µM

C#C[C@@]1(O)C[C@H](c2cc(OC)c(OC)c(OC)c2)[C@@H]2C(=O)c3c(c(O)c4ccccc4c3O)C(=O)[C@@H]2C1
IC50 (A549): 0.5 µM | IC50 (HT-29): 0.5 µM | IC50 (SK-MEL-28): 0.5 µM | IC50 (P388): 0.5 µM

C#C[C@]1(O)Cc2c(O)c3c(c(O)c2[C@@H](c2cc(OC)c(OC)c(OC)c2)C1)C(=O)c1ccccc1C3=O
IC50 (A549): > 10 µM | IC50 (HT-29): > 10 µM | IC50 (SK-MEL-28): > 10 µM | IC50 (P388): > 10 µM
